The source of these data is PMC10949812, “Unveiling CXCR2 as a promising therapeutic target in renal cell carcinoma: exploring the immunotherapeutic paradigm shift through its inhibition by RCT001” (Journal of Experimental & Clinical Cancer Research : CR, 2024).

Assay [1] deals with T1, CXCR2 (Homo sapiens, UniProt P25025).
T1 construct: recombinant CXCR2 reconstituted in detergent buffer containing lipids
T1 sequence (P25025 1-360): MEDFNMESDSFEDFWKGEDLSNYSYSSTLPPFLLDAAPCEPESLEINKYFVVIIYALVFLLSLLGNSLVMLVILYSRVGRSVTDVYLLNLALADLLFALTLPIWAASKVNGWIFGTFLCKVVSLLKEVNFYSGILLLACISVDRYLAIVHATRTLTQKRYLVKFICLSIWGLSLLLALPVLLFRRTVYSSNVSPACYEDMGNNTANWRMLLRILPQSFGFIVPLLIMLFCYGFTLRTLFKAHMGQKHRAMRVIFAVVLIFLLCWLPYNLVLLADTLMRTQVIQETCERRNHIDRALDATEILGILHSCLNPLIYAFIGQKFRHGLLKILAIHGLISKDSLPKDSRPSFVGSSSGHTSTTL
The assay is described as follows: fluorescent conformational probe (λmax shift) on recombinant reconstituted CXCR2, dose response and kinetics. It counts as binding.

Assay [2] has as its target T1, CXCR2. The assay is described as follows: fluorescent conformational probe (λmax shift) kinetics on recombinant CXCR2, SX-682 […] after CXCL8 […]. It counts as biochemical.

In general, EC50 refers to the concentration that produces a half-maximal response. In the case of `O=C(Nc1cc(Cl)cc(Cl)c1)Nc1nc2ccc([N+](=O)[O-])cc2s1` [RCT001, 1-(3,5-dichlorophenyl)-3-(6-nitrobenzo[d]thiazol-2-yl) urea], the EC50 in assay [1] amounted to 0.0427 µM.

For `O=C(Nc1ccc(F)cc1)c1cnc(SCc2cc(OC(F)(F)F)ccc2B(O)O)nc1` [SX-682], the “fluorescent conformational probe (λmax shift) kinetics on recombinant CXCR2, SX-” value in assay [2] is given as “Unlike RCT001, SX-682 inhibited CXCL8-induced pocket opening of CXCR2 (Fig. S3c), firmly establishing it as a standard CXCR2 antagonist”.
